Laboratory results taken from patent US20060135607A1, “Drug for improving prognosis for subarachnoid hemorrhage” (MOCHIDA PHARMACEUTICAL CO., LTD., priority 2003, published 2006).

System: patients with subarachnoid hemorrhage
Experiment: Clinical study of postoperative EPA administration in patients with subarachnoid hemorrhage caused by ruptured aneurysm (GOS, survival, adverse events)
Type: in vivo, human
Text: Sixty four patients with subarachnoid hemorrhage caused by the ruptured aneurysm and subjected to surgical operations by the third day after onset (22 males and 42 females of the ages from 30's-80's) were divided into two groups (each having 32 individuals) designated as an EPA-administration group and an EPA-non-administration group. In addition, no difference was recognized in their background factors of both groups. Just after the operation, the EPA administration group received the administration of ethyl eicosapentaenoate (trade name: Epadel, manufactured by Mochida Pharmaceutical Co., Ltd.), 1,800 mg divided in three-doses a day for 14 days. Subsequently, the administration was continued during the hospital stay. At the stage of being impossible to dietary intake, tube-feedings were carried out. EPA suspended in hot water was administered through a stomach tube (Magen Sonde). At that time, for enhancing the absorption of EPA, 50 mg of Urso granule (manufactured by Mitsubishi Pharma Corporation) was administered through the stomach tube 15 minutes before EPA administration. At the stage of being possible to dietary intake, a commercial EPA preparation was administered orally. Furthermore, both groups were treated in combination with basic treatments on subarachnoid hemorrhage. However, some of the drugs were defined as prohibited substances. At the 30th day from the onset of subarachnoid hemorrhage, an evaluation was carried out by the Glasgow Outcome Scale (GOS).

[1] = 30th day from onset, 32 patients per group, 1,800 mg/day
[2] = 32 patients per group, 1,800 mg/day

With `CC/C=C\C/C=C\C/C=C\C/C=C\C/C=C\CCCC(=O)OCC` [EPA, ethyl eicosapentaenoate] the “GOS: D (Death), number of patients” value [1] was 1, the “GOS: MD (Moderate disability), number of patients” value [1] was 6 and the “GOS: SD (Severe disability), number of patients” value [1] was 2. For the same compound, the “GOS: VS (Vegetative state), number of patients” value [1] was 2, the “GOS: GR (Good recovery), number of patients” value (30th day from onset, 32 patients per group, 1,800 mg/day in three doses, oral or stomach tube, Wilcoxon U test P=0.0128 vs non-administration group) was 21 and the “Death, number of patients” value [2] was 1. The “Survival, number of patients” value [2] was 31, the Survival rate (32 patients per group, 1,800 mg/day, Fisher's exact test P=0.0265 vs non-administration group) was 97% and the “Adverse event considered as a result of the EPA administration” value (subarachnoid hemorrhage patients, 1,800 mg/day for 14 days and continued during hospital stay) was “not found”.
